In the supplement of paper PMC10307832:

How the values were obtained:
Assay in all cases: relative viability (nuclei count vs DMSO), 5 days (fraction); higher = more cells survive
201T = test system: 201T
Method in brief: (§1)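 A single step with final 0.05% Triton X-100, 1% formaldehyde and 1 ug/ml Hoechst fixed the cells and stained nuclei 5 days after treatment. Lung cancer cell lines in 1536-well plates had been treated by pin tool the day after seeding with one drug alone or a fixed anchor-drug dose plus five library-drug doses (not always all listed) in √10 steps, and nuclei were counted on 4× images. Relative viability is the ratio of nuclei in treated wells to nuclei in vehicle wells, taken as the median of duplicate plates.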

A-427 = test system: A-427
Method in brief: as §1

COR-L23 = test system: COR-L23
Method in brief: as §1

H3255 = test system: H3255
Method in brief: as §1

HCC-44 = test system: HCC-44
Method in brief: as §1

LC-2-ad = test system: LC-2-ad
Method in brief: as §1

LCLC-103H = test system: LCLC-103H
Method in brief: as §1

LCLC-97TM1 = test system: LCLC-97TM1
Method in brief: as §1

LK-2 = test system: LK-2
Method in brief: as §1

LU99A = test system: LU99A
Method in brief: as §1

NCI-H1563 = test system: NCI-H1563
Method in brief: as §1

NCI-H1650 = test system: NCI-H1650
Method in brief: as §1

NCI-H1793 = test system: NCI-H1793
Method in brief: as §1

NCI-H2228 = test system: NCI-H2228
Method in brief: as §1

NCI-H2347 = test system: NCI-H2347
Method in brief: as §1

NCI-H23 = test system: NCI-H23
Method in brief: as §1

NCI-H460 = test system: NCI-H460
Method in brief: as §1

NCI-H596 = test system: NCI-H596
Method in brief: as §1

NCI-H727 = test system: NCI-H727
Method in brief: as §1

PC-14 = test system: PC-14
Method in brief: as §1

PC-3 [JPC-3] = test system: PC-3 [JPC-3]
Method in brief: as §1

SW 1573 = test system: SW 1573
Method in brief: as §1

O=c1cc(N2CCOCC2)oc2c(-c3cccc4c3sc3ccccc34)cccc12 + CS(=O)(=O)N1CCN(Cc2cc3nc(-c4cccc5[nH]ncc45)nc(N4CCOCC4)c3s2)CC1 [Pictilisib] (partner 1 µM)
relative viability (201T; first compound 0.01 µM): 0.698 | relative viability (201T; first compound 0.03162 µM): 0.67 | relative viability (201T; first compound 0.1 µM): 0.692 | relative viability (201T; first compound 0.3162 µM): 0.705 | relative viability (201T; first compound 1 µM): 0.661 | relative viability (A-427; first compound 0.01 µM): 0.902 | relative viability (A-427; first compound 0.03162 µM): 0.8 | relative viability (A-427; first compound 0.1 µM): 0.68 | relative viability (A-427; first compound 0.3162 µM): 0.635 | relative viability (A-427; first compound 1 µM): 0.742 | relative viability (COR-L23; first compound 0.01 µM): 0.765 | relative viability (COR-L23; first compound 0.03162 µM): 0.855 | relative viability (COR-L23; first compound 0.1 µM): 0.846 | relative viability (COR-L23; first compound 0.3162 µM): 0.757 | relative viability (COR-L23; first compound 1 µM): 0.778 | relative viability (H3255; first compound 0.01 µM): 0.5 | relative viability (H3255; first compound 0.03162 µM): 0.513 | relative viability (H3255; first compound 0.1 µM): 0.48 | relative viability (H3255; first compound 0.3162 µM): 0.45 | relative viability (H3255; first compound 1 µM): 0.416 | relative viability (HCC-44; first compound 0.01 µM): 0.638 | relative viability (HCC-44; first compound 0.03162 µM): 0.659 | relative viability (HCC-44; first compound 0.1 µM): 1.87 | relative viability (HCC-44; first compound 0.3162 µM): 0.543 | relative viability (HCC-44; first compound 1 µM): 0.549 | relative viability (LC-2-ad; first compound 0.01 µM): 0.39 | relative viability (LC-2-ad; first compound 0.1 µM): 0.578 | relative viability (LC-2-ad; first compound 0.3162 µM): 0.456 | relative viability (LC-2-ad; first compound 1 µM): 0.526 | relative viability (LCLC-103H; first compound 0.01 µM): 0.64 | relative viability (LCLC-103H; first compound 0.03162 µM): 0.664 | relative viability (LCLC-103H; first compound 0.1 µM): 0.649 | relative viability (LCLC-103H; first compound 0.3162 µM): 0.627 | relative viability (LCLC-103H; first compound 1 µM): 0.577 | relative viability (LCLC-97TM1; first compound 0.01 µM): 0.177 | relative viability (LCLC-97TM1; first compound 0.03162 µM): 0.271 | relative viability (LCLC-97TM1; first compound 0.3162 µM): 0.233 | relative viability (LCLC-97TM1; first compound 1 µM): 0.145 | relative viability (LK-2; first compound 0.01 µM): 0.676 | relative viability (LK-2; first compound 0.03162 µM): 0.562 | relative viability (LK-2; first compound 0.1 µM): 0.615 | relative viability (LK-2; first compound 0.3162 µM): 0.578 | relative viability (LK-2; first compound 1 µM): 0.64 | relative viability (LU99A; first compound 0.01 µM): 0.384 | relative viability (LU99A; first compound 0.03162 µM): 0.3 | relative viability (LU99A; first compound 0.1 µM): 0.333 | relative viability (LU99A; first compound 0.3162 µM): 0.367 | relative viability (LU99A; first compound 1 µM): 0.343 | relative viability (NCI-H1563; first compound 0.01 µM): 0.626 | relative viability (NCI-H1563; first compound 0.03162 µM): 0.634 | relative viability (NCI-H1563; first compound 0.1 µM): 0.659 | relative viability (NCI-H1563; first compound 0.3162 µM): 0.57 | relative viability (NCI-H1563; first compound 1 µM): 0.559 | relative viability (NCI-H1650; first compound 0.03162 µM): 0.549 | relative viability (NCI-H1650; first compound 0.1 µM): 0.56 | relative viability (NCI-H1650; first compound 0.3162 µM): 0.504 | relative viability (NCI-H1650; first compound 1 µM): 0.514 | relative viability (NCI-H1793; first compound 0.01 µM): 0.289 | relative viability (NCI-H1793; first compound 0.03162 µM): 0.348 | relative viability (NCI-H1793; first compound 0.1 µM): 0.336 | relative viability (NCI-H1793; first compound 0.3162 µM): 0.335 | relative viability (NCI-H1793; first compound 1 µM): 0.35 | relative viability (NCI-H2228; first compound 0.03162 µM): 0.351 | relative viability (NCI-H2228; first compound 0.1 µM): 0.668 | relative viability (NCI-H2228; first compound 0.3162 µM): 0.39 | relative viability (NCI-H2228; first compound 1 µM): 0.512 | relative viability (NCI-H2347; first compound 0.01 µM): 0.671 | relative viability (NCI-H2347; first compound 0.03162 µM): 0.442 | relative viability (NCI-H2347; first compound 0.1 µM): 0.502 | relative viability (NCI-H2347; first compound 0.3162 µM): 0.802 | relative viability (NCI-H2347; first compound 1 µM): 0.468 | relative viability (NCI-H23; first compound 0.01 µM): 0.529 | relative viability (NCI-H23; first compound 0.03162 µM): 0.422 | relative viability (NCI-H23; first compound 0.3162 µM): 0.513 | relative viability (NCI-H23; first compound 1 µM): 0.442 | relative viability (NCI-H460; first compound 0.01 µM): 0.403 | relative viability (NCI-H460; first compound 0.03162 µM): 0.342 | relative viability (NCI-H460; first compound 0.1 µM): 0.394 | relative viability (NCI-H460; first compound 0.3162 µM): 0.384 | relative viability (NCI-H460; first compound 1 µM): 0.319 | relative viability (NCI-H596; first compound 0.01 µM): 0.442 | relative viability (NCI-H596; first compound 0.03162 µM): 0.39 | relative viability (NCI-H596; first compound 0.1 µM): 0.38 | relative viability (NCI-H596; first compound 0.3162 µM): 0.395 | relative viability (NCI-H596; first compound 1 µM): 0.38 | relative viability (NCI-H727; first compound 0.01 µM): 0.587 | relative viability (NCI-H727; first compound 0.03162 µM): 0.355 | relative viability (NCI-H727; first compound 0.1 µM): 0.467 | relative viability (NCI-H727; first compound 0.3162 µM): 0.39 | relative viability (NCI-H727; first compound 1 µM): 0.266 | relative viability (PC-14; first compound 0.01 µM): 0.555 | relative viability (PC-14; first compound 0.03162 µM): 0.612 | relative viability (PC-14; first compound 0.1 µM): 0.553 | relative viability (PC-14; first compound 0.3162 µM): 0.638 | relative viability (PC-14; first compound 1 µM): 0.589 | relative viability (PC-3 [JPC-3]; first compound 0.01 µM): 0.751 | relative viability (PC-3 [JPC-3]; first compound 0.03162 µM): 0.747 | relative viability (PC-3 [JPC-3]; first compound 0.1 µM): 0.711 | relative viability (PC-3 [JPC-3]; first compound 0.3162 µM): 0.727 | relative viability (PC-3 [JPC-3]; first compound 1 µM): 0.739 | relative viability (SW 1573; first compound 0.01 µM): 0.549 | relative viability (SW 1573; first compound 0.03162 µM): 0.489 | relative viability (SW 1573; first compound 0.1 µM): 0.48 | relative viability (SW 1573; first compound 0.3162 µM): 0.452 | relative viability (SW 1573; first compound 1 µM): 0.471
